# Data: patent US8404738B2 (Hoffmann-La Roche Inc., priority 2011, dated 2013)
# Columns and labels:
# [1] = test system: p21 promoter-luciferase construct; assay: p21 reporter gene induction (HeLa cells, p21 promoter-luciferase construct); conditions: for p21 RP3: relative gene level of p21 compared to MS275 at 3 μM; for p21 RP10: relative level of p21 compared to MS275 at 10 μM; for p21 RP30: relative level of p21 compared to MS275 at 30 μM;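 on all read-outs here: transfected HeLa cells exposed to compound for 15 h, luciferase luminescence read from lysates, p21 promoter lacks p53 site, proxy for cellular HDAC1/2/3 inhibition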
# recombinant human HDAC8 = biological target: T1, recombinant human HDAC8 (Homo sapiens, UniProt Q9BY41); assay: HDAC8 inhibition: recombinant HDAC8 fluorometric assay; assay type: biochemical; conditions: recombinant human HDAC8, substrate Ac-Arg-His-Lys-Lys(ε-acetyl)-AMC; read-out: HDAC8 IC50
# T1 construct: made in house; host or cells: insect cells
# T1 sequence (Q9BY41 1-377): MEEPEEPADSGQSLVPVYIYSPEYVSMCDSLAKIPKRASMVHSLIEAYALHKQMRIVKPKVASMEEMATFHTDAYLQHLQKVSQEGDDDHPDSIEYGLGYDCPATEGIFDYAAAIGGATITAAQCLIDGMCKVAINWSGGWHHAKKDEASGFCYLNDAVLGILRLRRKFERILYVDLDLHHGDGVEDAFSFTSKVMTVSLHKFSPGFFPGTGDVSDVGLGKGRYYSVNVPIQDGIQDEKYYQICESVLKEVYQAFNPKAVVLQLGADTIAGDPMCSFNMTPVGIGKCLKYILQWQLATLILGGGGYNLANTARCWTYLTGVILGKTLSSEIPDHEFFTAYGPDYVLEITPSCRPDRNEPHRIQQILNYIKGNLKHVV
# Description: HDAC8 Inhibition by Novel Compounds: Recombinant HDAC8 Fluorometric Assay.
# A competitive inhibitory assay of HDAC8 was carried out by using recombinant HDAC8 and a commercial substrate Ac-Arg-His-Lys-Lys(ε-acetyl)-AMC.
# Compounds were tested for their ability to inhibit histone deacetylase 8 using an in vitro deacetylation assay. The enzyme source for this assay was recombinant human HDAC8 protein expressed and purified from insect cells. […] The substrate consisted of a commercial product Ac-Arg-His-Lys-Lys(ε-acetyl)-AMC (substrate is available from Cayman Chemical). […] 1 μl of half-log diluted compounds were added into wells and incubated for 15 min at rt. After that, 8 μl of substrate solution was transferred to the wells and incubated for 30 min at rt. After deacetylation of the substrate by incubation with HDAC8 enzyme, subsequent exposure to a developing reagent produced a fluorophore that was directly proportional to the level of deacetylation. […] The fluorescence signal was measured by a FlexStation3 plate reader (excitation wave length 340-360 nm; emission wave length 440-465 nm). The HDAC8 IC50 was calculated after normalization and curve fitting using XLfit4.0 software. Inhibition %=[Mean(top)−signal(sample)]×100/[Mean(top)−Mean(bottom)].
# HDAC6 = biological target: T2, HDAC6 (Homo sapiens, UniProt Q9UBN7); assay: Tubulin acetylation cytoblot assay (A549 cells); assay type: cell-based; conditions: 17-18 h incubation, tubulin acetylation as marker of HDAC6 inhibition, read-out: Tub-Ac EC50
# T2 construct: endogenous in cells; host or cells: A549 cells
# T2 sequence (Q9UBN7 1-1215): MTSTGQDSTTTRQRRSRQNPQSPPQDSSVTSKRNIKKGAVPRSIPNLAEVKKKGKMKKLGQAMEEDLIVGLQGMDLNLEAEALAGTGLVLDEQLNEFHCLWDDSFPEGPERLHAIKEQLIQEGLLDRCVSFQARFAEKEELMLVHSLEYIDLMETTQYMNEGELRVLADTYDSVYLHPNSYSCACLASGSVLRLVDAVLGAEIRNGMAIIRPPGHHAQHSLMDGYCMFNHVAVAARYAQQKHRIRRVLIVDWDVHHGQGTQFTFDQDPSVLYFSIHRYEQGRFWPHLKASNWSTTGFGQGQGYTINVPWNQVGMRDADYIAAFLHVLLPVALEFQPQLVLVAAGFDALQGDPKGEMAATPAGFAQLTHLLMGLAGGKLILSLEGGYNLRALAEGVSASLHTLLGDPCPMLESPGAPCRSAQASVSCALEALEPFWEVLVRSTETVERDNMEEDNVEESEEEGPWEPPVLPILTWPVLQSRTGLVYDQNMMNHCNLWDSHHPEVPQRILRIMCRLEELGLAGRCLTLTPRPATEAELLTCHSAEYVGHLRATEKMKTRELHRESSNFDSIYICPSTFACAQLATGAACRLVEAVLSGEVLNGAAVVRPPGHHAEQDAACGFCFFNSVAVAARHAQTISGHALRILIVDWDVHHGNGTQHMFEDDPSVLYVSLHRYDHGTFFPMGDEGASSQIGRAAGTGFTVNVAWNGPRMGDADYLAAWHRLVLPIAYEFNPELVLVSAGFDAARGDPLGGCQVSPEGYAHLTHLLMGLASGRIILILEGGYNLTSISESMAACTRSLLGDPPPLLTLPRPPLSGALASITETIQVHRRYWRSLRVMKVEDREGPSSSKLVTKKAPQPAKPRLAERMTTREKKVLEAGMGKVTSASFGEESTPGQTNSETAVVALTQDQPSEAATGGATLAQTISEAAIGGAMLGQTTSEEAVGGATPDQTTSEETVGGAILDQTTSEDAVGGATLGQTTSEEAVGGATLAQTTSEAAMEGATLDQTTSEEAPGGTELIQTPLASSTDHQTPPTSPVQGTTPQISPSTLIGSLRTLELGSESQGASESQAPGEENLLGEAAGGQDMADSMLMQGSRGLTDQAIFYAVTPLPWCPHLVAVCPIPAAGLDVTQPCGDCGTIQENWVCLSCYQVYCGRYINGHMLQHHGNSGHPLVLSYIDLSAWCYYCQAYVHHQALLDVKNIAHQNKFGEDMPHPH
# Description: Tubulin Acetylation Induction by Novel Compounds: Tubulin Acetylation Cytoblot Assay.
# Tubulin acetylation is a PD marker for HDAC6 inhibition. The extent of tubulin acetylation represents the inhibitory effect on HDAC6.
# Novel compounds were tested for their ability to inhibit HDAC6 using a cell-based deacetylation assay. Tubulin acetylation was detected by the anti-acetylated tubulin antibody (Sigma) and horse radish peroxidase (HRP) conjugated secondary antibody (KangChen Bio. Tech.). […] 20 μl of diluted compound solution was transferred to the cell culture plate and incubated for 17-18 h. After medium removal and fixation by formaldehyde (3.7% paraformaldehyde in TBS), the cells in the plates were treated with 180 μl of −20° C. MeOH and incubated for 5 min at rt. The cell lysis was incubated with 75 μl of primary anti-acetylated tubulin antibody and secondary HRP conjugated antibody solution (1:750 anti-acetylated tubulin, 1:750 HRP conjugated anti-mouse IgG in antibody dilution buffer not containing sodium azide) for 4 h at 4° C. By adding the HRP substrate, enhanced chemiluminescence (ECL) reagent (GE Healthcare) generated luminescence corresponding to the level of tubulin acetylation. So that 75 μl of ECL was added into the wells and the luminescence from each well was immediately quantified by the plate reader. Based on the luminescence reading, the Tub-Ac EC50s against HDAC6 of the tested compounds were calculated by plotting the curve with XLfit4.0 software. Inhibition %=[signal(sample)−Mean(bottom)]×100/[Mean(top)−Mean(bottom)]
smiles,measurement,setting,value
"O=C(NO)c1ccc(NC2CCN(c3cccc(Cl)c3)C2=O)cc1F (centres unmarked) [Example 67, 4-[1-(3-Chloro-phenyl)-2-oxo-pyrrolidin-3-ylamino]-2-fluoro-N-hydroxy-benzamide]",p21 RP3,[1],0.40
same,p21 RP10,[1],0.17
same,p21 RP30,[1],0.02
same,IC50,recombinant human HDAC8,2120 nM
same,EC50,HDAC6,6230 nM
C[C@H](c1ccccc1)N1CCC(Nc2ccc(C(=O)NO)cc2)C1=O (some centres unmarked) [Example 45],p21 RP3,[1],−0.19
same,p21 RP10,[1],0.02
same,p21 RP30,[1],0.13
same,IC50,recombinant human HDAC8,650 nM
same,EC50,HDAC6,8300 nM
"CC(C)(c1cccc2ccccc12)N1CCC(Nc2ccc(C(=O)NO)cc2)C1=O (centres unmarked) [Example 52, N-Hydroxy-4-[1-(1-methyl-1-naphthalen-1-yl-ethyl)-2-oxo-pyrrolidin-3-ylamino]-benzamide]",p21 RP3,[1],0.14
same,p21 RP10,[1],0.53
same,p21 RP30,[1],0.58
same,IC50,recombinant human HDAC8,1050 nM
same,EC50,HDAC6,2820 nM
"CC(C)c1cccc(N2CCC(Nc3ccc(C(=O)NO)cc3)C2=O)c1 (centres unmarked) [Example 13, N-Hydroxy-4-[1-(3-isopropyl-phenyl)-2-oxo-pyrrolidin-3-ylamino]-benzamide]",p21 RP3,[1],0.29
same,p21 RP10,[1],0.19
same,p21 RP30,[1],0.09
same,IC50,recombinant human HDAC8,740 nM
same,EC50,HDAC6,1530 nM
"O=C(NO)c1ccc(NC2CCN(c3ccc(-n4ccnc4)cc3)C2=O)cc1 (centres unmarked) [Example 34, N-Hydroxy-4-[1-(4-imidazol-1-yl-phenyl)-2-oxo-pyrrolidin-3-ylamino]-benzamide]",p21 RP3,[1],0.36
same,p21 RP10,[1],0.12
same,p21 RP30,[1],0.06
same,IC50,recombinant human HDAC8,2890 nM
same,EC50,HDAC6,10600 nM
"CC1(Nc2ccc(C(=O)NO)cc2)C(=O)N(Cc2ccccc2Cl)c2ccc(F)cc21 (centres unmarked) [Example 99, 4-[1-(2-Chloro-benzyl)-5-fluoro-3-methyl-2-oxo-2,3-dihydro-1H-indol-3-ylamino]-N-hydroxy-benzamide]",p21 RP3,[1],0.95
same,p21 RP10,[1],0.62
same,p21 RP30,[1],0.00
same,IC50,recombinant human HDAC8,1230 nM
same,EC50,HDAC6,150 nM
"CC1(Nc2ccc(C(=O)NO)cc2)CCN(C(C)(C)c2ccccc2)C1=O (centres unmarked) [Example 64, N-Hydroxy-4-[3-methyl-1-(1-methyl-1-phenyl-ethyl)-2-oxo-pyrrolidin-3-ylamino]-benzamide]",p21 RP3,[1],0.30
same,p21 RP10,[1],0.04
same,p21 RP30,[1],0.02
same,IC50,recombinant human HDAC8,320 nM
same,EC50,HDAC6,10200 nM
"CC1(Nc2ccc(C(=O)NO)cc2)C(=O)N(c2cccc(Cl)c2)c2ccncc21 (centres unmarked) [Example 100, 4-[1-(3-Chloro-phenyl)-3-methyl-2-oxo-2,3-dihydro-1H-pyrrolo[3,2-c]pyridin-3-ylamino]-N-hydroxy-benzamide]",p21 RP3,[1],0.45
same,p21 RP10,[1],0.13
same,p21 RP30,[1],0.31
same,IC50,recombinant human HDAC8,720 nM
same,EC50,HDAC6,710 nM
C[C@H](c1ccccc1)N1CCC(Nc2ccc(C(=O)NO)cc2)C1=O (some centres unmarked) [Example 44],p21 RP3,[1],−0.10
same,p21 RP10,[1],0.03
same,p21 RP30,[1],0.10
same,IC50,recombinant human HDAC8,700 nM
same,EC50,HDAC6,6310 nM
"O=C(NO)c1ccc(NC2CCN(c3ccc(Cl)c(Cl)c3)C2=O)cc1 (centres unmarked) [Example 25, 4-[1-(3,4-Dichloro-phenyl)-2-oxo-pyrrolidin-3-ylamino]-N-hydroxy-benzamide]",p21 RP3,[1],0.00
same,p21 RP10,[1],0.14
same,p21 RP30,[1],−0.03
same,IC50,recombinant human HDAC8,970 nM
same,EC50,HDAC6,4330 nM
"CC(C)(c1ccc(Cl)cc1)N1CCC(Nc2ccc(C(=O)NO)cc2)C1=O (centres unmarked) [Example 50, 4-{1-[1-(4-Chloro-phenyl)-1-methyl-ethyl]-2-oxo-pyrrolidin-3-ylamino}-N-hydroxy-benzamide]",p21 RP3,[1],0.17
same,p21 RP10,[1],0.17
same,p21 RP30,[1],0.53
same,IC50,recombinant human HDAC8,670 nM
same,EC50,HDAC6,8620 nM
"CC(C)(C)c1ccc(N2CCC(Nc3ccc(C(=O)NO)cc3)C2=O)cc1 (centres unmarked) [Example 16, 4-[1-(4-tert-Butyl-phenyl)-2-oxo-pyrrolidin-3-ylamino]-N-hydroxy-benzamide]",p21 RP3,[1],0.17
same,p21 RP10,[1],0.12
same,p21 RP30,[1],−0.03
same,IC50,recombinant human HDAC8,1870 nM
same,EC50,HDAC6,1060 nM
"C[C@H]1[C@H](Nc2ccc(C(=O)NO)cc2)CC(=O)N1c1ccc(Cl)cc1 (racemic) [Example 77, Trans-4-[1-(4-Chloro-phenyl)-2-methyl-5-oxo-pyrrolidin-3-ylamino]-N-hydroxy-benzamide]",p21 RP3,[1],0.00
same,p21 RP10,[1],0.07
same,p21 RP30,[1],0.07
same,IC50,recombinant human HDAC8,850 nM
same,EC50,HDAC6,1250 nM
